Test results taken from patent US6743618B2, “Thermostable proteolytic enzymes and uses thereof in peptide and protein synthesis” (University of Florida Research Foundation, Inc., priority 1996, dated 2004).
Non-standard residues stand in square brackets, D forms with d. Residues, ends and D or L forms follow the SMILES beside them. *: point of attachment. pNA = O=[N+]([O-])c1ccc(N*)cc1; Cbz = O=C(OCc1ccccc1)*; Bz = O=C(c1ccccc1)*

Columns and labels:
P. furiosus protease [1] = biological target: T1, P. furiosus protease (Pyrococcus furiosus, UniProt Q8U3Y3); assay: Hydrolysis kinetics of synthetic peptide and ester substrates (progress curve / initial velocity analysis); type: biochemical; details: for Ki: read-out: Ki (product inhibition constant)
T1 sequence (Q8U3Y3 entry or part of it): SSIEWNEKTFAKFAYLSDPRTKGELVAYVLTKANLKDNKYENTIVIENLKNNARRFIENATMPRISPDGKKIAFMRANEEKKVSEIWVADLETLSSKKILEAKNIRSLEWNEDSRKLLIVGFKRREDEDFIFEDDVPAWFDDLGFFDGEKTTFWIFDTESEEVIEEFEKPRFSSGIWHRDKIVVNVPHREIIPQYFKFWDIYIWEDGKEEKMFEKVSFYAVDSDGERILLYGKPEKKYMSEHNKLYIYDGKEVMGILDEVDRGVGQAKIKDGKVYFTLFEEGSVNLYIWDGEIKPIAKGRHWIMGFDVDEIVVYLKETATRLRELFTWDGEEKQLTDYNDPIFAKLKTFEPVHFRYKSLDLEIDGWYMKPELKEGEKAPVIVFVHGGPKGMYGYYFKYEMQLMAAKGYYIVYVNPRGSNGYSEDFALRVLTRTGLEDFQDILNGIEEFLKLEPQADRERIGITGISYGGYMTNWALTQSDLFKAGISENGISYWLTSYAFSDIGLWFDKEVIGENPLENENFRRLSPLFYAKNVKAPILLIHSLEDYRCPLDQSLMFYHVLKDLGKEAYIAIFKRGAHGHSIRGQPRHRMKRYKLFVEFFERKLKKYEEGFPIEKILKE
Source text: (§1) The hydrolysis kinetics of various synthetic peptide and ester protease substrates were studied. Two different methods have been used to analyze the kinetic properties of the enzyme. The first utilized initial velocity data at several substrate concentrations with analysis by plotting s/v νs s (Hanes plot). This method was always used when it was possible that the protease could cleave at more than one site (e.g., PPANA). The second method utilizes all data of the progress curve of the reaction. Progess curves were analyzed in two ways:
(§2) Instantaneous point by point derivatives were calculated from the absorbance νs time data by fitting 10 points spaced 1 second apart by least squares to a second degree polynomial. Derivatives were computed analytically and were used to construct plots of v νs s, which were then analyzed by non-linear regression to obtain Km, kcat and any product inhibition constant (Ki) if it exists. […] For all measurements at elevated temperature, the first-order rate constants for non-enzymic hydrolysis were determined for all substrates. The analytic method described here was used both for reactions at 25.0° C. and 80.0° C.
(§3) For these analyses, the integrated Michaelis-Menten equation was used, but not in linearized form, for reasons relating to product inhibition. Plots of time (now the dependent variable) νs absorbance were constructed from the raw data and analyzed by non-linear regression. […] This method was used for analyses at 25.0° C. only.
(§4) All kinetic studies utilized a Cary 3E double beam spectrophotometer and absorbance νs time data were collected by computer at 1 second intervals. In cases where a peptide substrate could potentially be cleaved at more than one site, thin-layer chromatography was used to establish the products formed (silica gel; butanol:acetone:NH4OH:water—37:37:19:7).
(§5) All of the above are mean values from at least 4 separate experiments. Except for PPANA, values are means of v νs s and integrated rate equation analyses. PPANA values were obtained from initial velocity measurements, analyzed by the Hanes equation. Solvent: 0.025 M Na Phosphate, pH 7.0. […] N. D. means not determined.

P. furiosus protease [2] = biological target: T1, P. furiosus protease; assay: Activation enthalpy and entropy from Arrhenius plots of initial velocities; type: biochemical
Description: For all kinetic experiments at high temperatures, sodium phosphate (0.025 M) was used as a buffer.
To explore the basis for the extremely large increases in enzyme activity with temperature, initial velocity (vo) measurements were made at 6 different substrate concentrations in order to determine kcat and Km at a series of temperatures in the range of 25.0 to 83.5° C. Temperature was controlled to within ±0.5° C. with a large water bath and jacketed cuvettes. Two substrates were used for these experiments—BAPNA and D-pro-phe-arg-pNA(PPANA).
Within the temperature range accessible to mesophilic enzymes, such plots are linear. […] The data was fitted to a second degree polynomial and the slopes determined as a function of temperature to compute Arrhenius activation energies. These values were used to compute activation enthalpy (ΔH*) and entrophy (ΔS*) as a function of temperature (Eyring, H. (1963) Modern Chemical Kinetics, Rheinhold, N.Y.).

trypsin = assay: BAPNA hydrolysis by trypsin (comparison); type: biochemical; details: BAPNA as substrate, same conditions (25.0 °C)
P. furiosus protease [3] = biological target: T1, P. furiosus protease; assay: Active site inhibitor studies, BAPNA as substrate; type: biochemical
Source text: (§6) To assign the class of protease to which the P. furiosus protease belongs, several reagents were used to identify catalytically important residues.
b. […] This reagent reacts rapidly and specifically with the active site histidine residue of the active site triad: ser-his-asp (Shaw, E. “Site-Specific Reagents for Chymotrypsin and Trypsin.” […]. 11:677-686, 1967).

[4] = tested on: Pyrococcus furiosus serine protease, native, about 81 kDa, N-terminus SEQ ID NO: 1; assay: Active site inhibitor studies (BAPNA as substrate); type: biochemical; details: 10^−3 M, incubation for 24 hr
Description: as §6
a. Incubation of the enzyme with 10^−3 M EDTA for 24 hr had no effect upon enzyme activity.
b. One of the active-site inhibitors of mesophilic serine proteases is phe-pro-argCH2Cl. This reagent reacts rapidly and specifically with the active site histidine residue of the active site triad: ser-his-asp (Shaw, E. “Site-Specific Reagents for Chymotrypsin and Trypsin.” […]. 11:677-686, 1967).

[5] = tested on: Pyrococcus furiosus serine protease (carboxypeptidase/endopeptidase), native, about 81 kDa, N-terminus SEQ ID NO: 1; assay: Kinetic studies and substrate specificity (hydrolysis of synthetic peptide and ester substrates; progress curves, Hanes plot); type: biochemical; details: for Km / kcat: 0.025 M Na phosphate, pH 7.0, mean of at least 4 experiments (PPANA: initial velocities, Hanes equation); for product inhibition, Ki compared with Km / hydrolysis by the protease: in words; for hydrolysis by the protease: at up to 80° C. for arg-pNA (TLC), Table 3 lists HA and ZGP at 25.0° C.
Source text: as §1, §2
b. Integrated Rate Equation Analyses: t νs Absorbance
as §3
Subroutines for the above analyses were written to analyze the kinetic data for: product competitive inhibition, non-competitive inhibition, 2-product inhibition, and simple Michaelis-Menten kinetics. An HP 9000 series work station was used for this purpose, using HP BASIC.
as §4, §5

[6] = pK values used to calculate theoretical yield; type: physicochemical; details: for pK1: carboxyl reactant; for pK2: amine nucleophile
Description: Yield is defined as the ratio of product concentration to the initial concentration of the carboxyl reactant (in percent). Theoretical yield was calculated from equations 1, 2 and 3 together with pK1=3.81 (ZGL) and 4.47 (ZGE); pK2=7.93 (leu-NH2) and 7.51 (arg-NH2).

P. furiosus protease [7] = biological target: T1, P. furiosus protease; assay: Product inhibition: initial rate measurements of BAPNA with varying product concentrations; type: biochemical
[8] = tested on: serine protease of the subject invention; assay: Digestion of insulin B-chain, products by TLC; type: biochemical, Pyrococcus furiosus; details: 80° C., phosphate buffer, pH 7.0, 1 hour
Description: Treatment of the insulin B-chain with the serine protease of the subject invention (80° C., phosphate buffer, pH 7.0) for 1 hour yields 5 ninhydrin-positive components by TLC. No non-enzyme hydrolysis of substrate was detected after this time period. One of the new components is alanine which the carboxy terminus of the B-chain. None of the others is a free amino acid. These studies with insulin provide further evidence that the enzyme is an endopeptidase.

[9] = 25.0 °C, 0.025 M Na phosphate, pH 7.0, total progress curve analyses
[10] = 25.0 °C, BAPNA substrate, sodium phosphate 0.025 M pH 7.0, iodoacetamide 100-fold molar excess

## N=C(N)NCCC[C@H](NC(=O)c1ccccc1)C(=O)Nc1ccc([N+](=O)[O-])cc1 [BAPNA, N-benzoyl-L-arginine-p-nitroanilide]
P. furiosus protease [1]; 25.0 °C
  Ki compared with Km: Ki<Km
P. furiosus protease [1]; 25.0 °C, Table 3
  Ki times less than Km: 10
P. furiosus protease [1]; [9]
  Ki: 70.8 µM
P. furiosus protease [1]; 80 °C vs 25 °C
  kcat at 80° C. relative to 25° C. (times greater): 65
P. furiosus protease [1]; 80.0 °C, 0.025 M Na phosphate, pH 7.0, progress curve analysis
  Ki: 220 µM
P. furiosus protease [2]; 25.0 °C
  ΔH* (activation enthalpy): 17.2 kcal/mol
  ΔS* (activation entropy): 2.2 e.u
P. furiosus protease [2]; 80.0 °C
  ΔH* (activation enthalpy): 3.1 kcal/mol
  ΔS* (activation entropy): −41.7 e.u
trypsin
  kcat: 2.7 s⁻¹

## CCOC(=O)[C@H](Cc1ccc(O)cc1)NC(=O)c1ccccc1 [BTEE, benzoyl-tyrosine ethyl ester]
P. furiosus protease [1]; [9]
  Ki: 5600 µM

## O=C(O)CN(CCN(CC(=O)O)CC(=O)O)CC(=O)O [EDTA]
P. furiosus protease [3]
  effect upon enzyme activity: no effect
[4]
  effect upon enzyme activity: no effect

## C[C@H](NC(=O)/C=C/c1ccco1)C(=O)N[C@@H](Cc1ccccc1)C(N)=O [FAAPA, furyl-acryloyl-ala-phe-amide]
[5]; 25.0° C.
  Km: 38.6 µM
  kcat: 7.31 s⁻¹
[5]
  product inhibition, Ki compared with Km: Ki<Km

## CC(C)C[C@H](NC(=O)CNC(=O)/C=C/c1ccco1)C(N)=O [FAGLA, furyl-acryloyl-glycyl-leucine amide]
P. furiosus protease [1]; 25.0 °C
  Ki compared with Km: Ki<Km
  product inhibition: intense product inhibition
P. furiosus protease [1]; 25.0 °C, 0.025 M Na phosphate, pH 7.0, PPANA from initial velocities (Hanes)
  Km: 6.08 µM
P. furiosus protease [1]; 25.0 °C, 0.025 M Na phosphate, pH 7.0, means of at least 4 experiments, PPANA from initial velocities (Hanes)
  kcat: 0.67 s⁻¹

## O=C(O)CNC(=O)CNC(=O)[C@H](Cc1ccccc1)NC(=O)/C=C/c1ccco1 [FAPGG, furyl-acryloyl-phe-gly-gly]
[5]; 25.0° C.
  Km: 415 µM
  kcat: 10.64 s⁻¹
[5]
  product inhibition, Ki compared with Km: No product inhibition is observed

## O=C(/C=C/c1ccco1)N[C@@H](Cc1ccccc1)C(=O)N[C@@H](Cc1ccccc1)C(=O)O [FAPP, furyl-acryloyl-phe-phe]
[5]; 25.0° C.
  Km: 375 µM
  kcat: 4.58 s⁻¹
[5]
  product inhibition, Ki compared with Km: product inhibition is not observed

## N=C(N)NCCC[C@H](NC(=O)CNC(=O)c1ccccc1)C(=O)O [HA, hippuryl-arginine] (Bz-Gly-Arg-OH)
P. furiosus protease [1]; 25.0 °C
  hydrolysis by the enzyme: Remain Unaltered
[5]
  hydrolysis by the protease: Remain Unaltered by the Enzyme

## O=S(=O)(F)Cc1ccccc1 [PMSF, phenyl-methyl-sulfonyl fluoride]
P. furiosus protease [3]; 8×10^3 molar excess over enzyme, BAPNA substrate, 25.0 °C
  inhibition of enzyme activity: complete inhibition

## N=C(N)NCCC[C@H](NC(=O)[C@H](Cc1ccccc1)NC(=O)[C@H]1CCCN1)C(=O)Nc1ccc([N+](=O)[O-])cc1 [PPANA, D-pro-phe-arg-pNA] (H-[dP]-Phe-Arg-pNA)
P. furiosus protease [2]; 25.0 °C
  ΔH* (activation enthalpy): 26.1 kcal/mol
  ΔS* (activation entropy): 23.8 e.u
P. furiosus protease [2]; 80.0 °C
  ΔH* (activation enthalpy): 15.4 kcal/mol
  ΔS* (activation entropy): −9.0 e.u
[5]; 25.0° C.
  Km: 477 µM
  kcat: .045 s⁻¹
[5]; 80.0° C.
  Km: 499 µM
  kcat: 5.44 s⁻¹
[5]; kcat at 80° C. vs 25° C.
  kcat ratio 80° C./25° C.: 120 times

## O=C(O)CC[C@H](NC(=O)CNC(=O)OCc1ccccc1)C(=O)O [ZGE, Z-gly-glu] (Cbz-Gly-Glu-OH)
[6]
  pK1: 4.47

## CC(C)CC(NC(=O)CNC(=O)OCc1ccccc1)C(=O)O (centres unmarked) [ZGL, Z-gly-leu]
[6]
  pK1: 3.81

## O=C(CNC(=O)OCc1ccccc1)N[C@@H](Cc1ccccc1)C(=O)O [ZGP, carbobenzoxy-gly-phe] (Cbz-Gly-Phe-OH)
P. furiosus protease [1]; 25.0 °C
  hydrolysis by the enzyme: Remain Unaltered
[5]
  hydrolysis by the protease: Remain Unaltered by the Enzyme

## CC(NC(=O)C(Cc1ccccc1)NC(=O)OCc1ccccc1)C(=O)O (centres unmarked) [ZPA, carbobenzoxy-phe-ala]
P. furiosus protease [1]; 25.0 °C
  Ki compared with Km: Ki<Km
P. furiosus protease [1]; [9]
  Ki: 134 µM

## NC(=O)[C@@H](N)CCCN=C(N)N [arg-NH2]
[6]
  pK2: 7.51

## N=C(N)NCCC[C@H](N)C(=O)Nc1ccc([N+](=O)[O-])cc1 [arg-pNA]
P. furiosus protease [1]; even at 80° C.
  hydrolysis by the protease (TLC): does not hydrolyze
[5]
  hydrolysis by the protease: does not hydrolyze arg-pNA at all, even at 80 °C

## N=C(N)NCCC[C@H](NC(=O)c1ccccc1)C(=O)O [benzoyl-L-arginine]
P. furiosus protease [1]; [9]
  Ki: 70.8 µM
P. furiosus protease [7]; initial rate measurements of BAPNA with varying product concentration, read-out: Ki (inhibition constant of added product)
  Ki: 65 µM

## O=C(O)c1cc(SSc2ccc([N+](=O)[O-])c(C(=O)O)c2)ccc1[N+](=O)[O-] [bisdithiodintrobenzene]
P. furiosus protease [3]; [10]
  effect upon the activity of the enzyme: no effect whatsoever

## NC(=O)CI [iodoacetamide]
P. furiosus protease [3]; [10]
  effect upon the activity of the enzyme: no effect whatsoever

## CC(C)C[C@H](N)C(N)=O [leu-NH2]
[6]
  pK2: 7.93

## Nc1ccc([N+](=O)[O-])cc1 [p-nitroaniline]
P. furiosus protease [7]; concentrations as high as 5×10^−4 M, initial rates of BAPNA
  inhibition by added product: no detectable inhibition

## N=C(N)NCCC[C@H](NC(=O)[C@@H]1CCCN1C(=O)[C@H](N)Cc1ccccc1)C(=O)CCl [phe-pro-argCH2Cl]
P. furiosus protease [3]; inhibitor 1.98×10^−6 M, BAPNA 3.8×10^−4 M, 25.0 °C
  pseudo first order inactivation rate constant: 0.022 s⁻¹

## O=P(O)(O)O [sodium phosphate]
P. furiosus protease [3]; pH 7
  effect upon the activity of the enzyme: no effect whatsoever

## insulin B-chain: insulin B-chain, used as a substrate; its carboxy terminus is alanine
[8]
  ninhydrin-positive components by TLC: 5
